Tests used:
Assay type in all cases: cell-based
[1] = test system: A427, ASPC1, Panc04.03, Ls174T, Ls513, AGS and HEClA cancer cell lines (KRAS G12D mutation); assay: 3D proliferation assay (ultra-low attachment plates), small molecule Kras12D inhibitor plus second inhibitor, Bliss independence model; conditions: for cell growth inhibition: across the cell line panel; for maximal cell growth inhibition, on average: average over cell line panel
[2] = test system: A427, ASPC1 and Ls513 cancer cell lines (KRAS G12D mutation); assay: cell growth inhibition in 3D suspension culture after lentiviral shRNA KRAS knockdown plus inhibitor, Bliss independence model; conditions: for degree of synergy of cell growth inhibition (excess over Bliss): all cell lines tested
Description: This study explores the inhibition of a variety types (e.g., Kras G12D driven tumor cells) of cancer cells using a combination of nucleic-acid based Kras12D inhibitor and SOS inhibitor. Cell lines utilized include A427, a non-small cell lung cancer (NSCLC), ASPC1, a pancreatic cancer, and Ls513, colorectal cancer cell line. All three cell lines contain a KRAS G12D mutation. The cancer cell lines were adherently cultured in vitro and transduced with lentiviral particles packaged with shRNAs targeting either KRAS or negative control gene Luciferase.
Amphotropic lentiviruses were produced by the co-transfection of 293FT cells and were packaged using the ViraPower lentiviral expression system (ThermoFisher Scientific). Lentiviral shRNA clones targeting luciferase (as sh-Ctrl) and KRAS were obtained from Sigma in the MISSION pLKO.1-puro vector with clone IDs as follows: shKRAS #1: TRCN0000033262, NM_033360.2-509s1c1, shKRAS #2: TRCN0000033260, NM_033360.2-407s1c1, and the Luciferase shRNA control plasmid DNA (Cat #SHC007, Sigma). Viral supernatants were filtered through a 0.45 µm filter and supplemented with […] of polybrene (Sigma) and added to 70% confluent cells pre-plated in six-well dishes. Plates were spinfected for 1 h under 600×g at 37° C. centrifugation. Cells were subsequently washed with PBS and allowed to rest 48 hours in fresh culture media at 37° C. Next, cells were reseeded as 3D suspensions (ultra-low adherent plates) into 384 well plates in RPMI medium containing 10% FBS. Approximately 24 hrs later, 10 uM SOS inhibitor as described herein or DMSO (as negative control) was added to the cell cultures for a period of about 5 days. […] The degree of synergy for the combination across cell lines was calculated by using the Bliss independence model. […] The greater the departure from Bliss indicates more profound synergy: <0 is no synergism, 0.05-0.1 is mild synergy, 0.1-0.2 moderate synergy, and >0.2 is robust synergy.
Amphotropic lentiviruses were produced in the same manner as described in the preceding Example 6. 1 uM SHP2 inhibitor as described herein or DMSO (as negative control) was added to the cell cultures for a period of about 5 days. […] The degree of synergy for the combination across cell lines was calculated by using the Bliss independence model. […] The greater the departure from Bliss indicates more profound synergy: <0 is no synergism, 0.05-0.1 is mild synergy, 0.1-0.2 moderate synergy, and >0.2 is robust synergy.
Amphotropic lentiviruses were produced in the same manner as described in the preceding Example 6. […] The concentration of the respective EGFR inhibitors utilized in this cell assay was chosen to be within the range corresponding to achievable exposures and pharmacokinetics of a recommended and clinically relevant doses applied in human. […] The degree of synergy for the combination across cell lines was calculated by using the Bliss independence model as exemplified in the preceding Example 6.
Amphotropic lentiviruses were produced in the same manner as described in the preceding Example 6. 3 nM of Trametinib or DMSO (negative control) was added to the cell cultures for a period of about 5 days. The concentration of the MEK inhibitor utilized in this cell assay was chosen to be within the range corresponding to achievable exposures and pharmacokinetics of a recommended and clinical relevant dose applied in human. […] The degree of synergy for the combination across cell lines was calculated by using the Bliss independence model as exemplified in the preceding Example 6.
Amphotropic lentiviruses were produced in the same manner as described in the preceding Example 6.

[3] = test system: A427, ASPC1, Panc04.03, Ls174T, Ls513, AGS and HEClA cancer cell lines (KRAS G12D mutation); assay: 3D proliferation assay (ultra-low attachment plates), small molecule Kras12D inhibitor plus second inhibitor, Bliss independence model
Description: This study explores the inhibition of a variety types of cancer cells (e.g., KRAS G12D driven tumor cells) using a combination of small molecule based Kras12D inhibitor and SOS inhibitor. Cell lines from multiple indications were utilized and include the A427 (a non-small cell lung cancer, “NSCLC”), ASPC1 and Panc04.03 (both pancreatic cancer), Ls174T and Ls513 (both colorectal cancer), AGS (a gastric cancer), and HEClA (an endometrial cancer cell line). All cell lines contain a KRAS G12D mutation. The seven cancer cell lines were cultured in vitro in a 3D proliferation assay where cells are grown in ultra-low attachment surface cell culture plates in RPMI medium containing ˜10% FBS. Cells were incubated with different concentrations of SOS inhibitor (e.g., 10 uM, 3 uM, or 1 uM) and with different concentrations of a Kras12D inhibitors (either Compound A, Compound B, or Compound C, e.g., 0.1 uM, 0.3 uM, 1.0 uM, 3.0 uM) for a period of 5 days. […] The degree of synergy for the combination across cell lines was calculated by using the Bliss independence model as described herein. […] The greater the departure from Bliss indicates more profound synergy: ≤0 indicates no synergism, 0.05-0.1 indicates mild synergy, 0.1-0.2 indicates moderate synergy, and >0.2 indicates robust synergy.
This study explores the inhibition of a variety types of cancer cells (e.g., KRAS G12D driven tumor cells) using a combination of small molecule based Kras12D inhibitor and SHP2 inhibitor. Cell lines from multiple indications were utilized and include the A427 (a non-small cell lung cancer, “NSCLC”), ASPC1 and Panc04.03 (both pancreatic cancer), Ls174T and Ls513 (both colorectal cancer), AGS (a gastric cancer), and HEClA (an endometrial cancer cell line). All cell lines contain a KRAS G12D mutation. The seven cancer cell lines were cultured in vitro in a 3D proliferation assay where cells are grown in ultra-low attachment surface cell culture plates in RPMI medium containing 10% FBS. Cells were incubated with different concentrations of SHP2 inhibitor (e.g., 10 uM, 3 uM, or 1 uM) and with different concentrations of a Kras12D inhibitors (either Compound A, Compound B, or Compound C, e.g., 0.1 uM, 0.3 uM, 1.0 uM, 3.0 uM) for a period of 5 days. […] The degree of synergy for the combination across cell lines was calculated by using the Bliss independence model as described in the preceding examples.
The study explores the inhibition of a variety types of cancer cells (e.g., KRAS G12D driven tumor cells) using a combination of small molecule based Kras12D inhibitor and EGFR inhibitor.

CN(C)C/C=C/C(=O)Nc1cc2c(Nc3ccc(F)c(Cl)c3)ncnc2cc1O[C@H]1CCOC1 [afatinib]
cell growth inhibition ([1]; afatinib as single agent, across its concentration range (up to 1 uM)): no more than 86%
inhibition at 0.1 µM ([2]; 0.1 uM in combination with nucleic-acid based Kras12D inhibitor, pancreatic, colorectal and NSCLC cell lines): ≤ 75%
inhibition at 0.1 µM ([2]; 120 h, single agent, 0.1 uM, about 5 days): < 30%

Cc1nc(NC(=O)N2CCC[C@H]2C(N)=O)sc1-c1ccnc(C(C)(C)C(F)(F)F)c1 [BYL719]
cell growth inhibition ([1]; PI3Ka inhibitor (BYL719) as single agent, across its concentration range (up to 10 uM)): no more than 88%
maximal cell growth inhibition, on average ([1]; PI3Ka inhibitor (BYL719) as single agent): about 58%
cell growth inhibition ([2]; 0.3 uM PI3K-alpha inhibitor (BYL719) in combination with nucleic-acid based Kras12D inhibitor): up to 87%
degree of synergy of cell growth inhibition (excess over Bliss) ([2]; 0.3 uM PI3K-alpha inhibitor (BYL719) in combination with nucleic-acid based Kras12D inhibitor, 5 days): little to moderate

CC(=O)Nc1cccc(-n2c(=O)n(C3CC3)c(=O)c3c(Nc4ccc(I)cc4F)n(C)c(=O)c(C)c32)c1 [Trametinib, trametinib]
cell growth inhibition ([1]; MEK inhibitor as single agent, across its concentration range (up to 0.01 uM)): no more than 68%
maximal cell growth inhibition, on average ([1]; MEK inhibitor as single agent): about 42%
inhibition at 0.003 µM ([2]; 3 nM Trametinib in combination with nucleic-acid based Kras12D inhibitor): ≤ 89%
inhibition at 0.003 µM ([2]; single agent, 3 nM Trametinib): < 50%

C[C@@H]1OCC2(CCN(c3cnc(Sc4ccnc(N)c4Cl)c(N)n3)CC2)[C@@H]1N [SHP2 inhibitor, (3S,4S)-8-(6-amino-5-((2-amino-3-chloropyridin-4-yl)thio)pyrazin-2-yl)-3-methyl-2-oxa-8-azaspiro[4.5]decan-4-amine]
degree of synergy of cell growth inhibition (excess over Bliss) ([2]; 1 uM SHP2 inhibitor in combination with nucleic-acid based Kras12D inhibitor (shRNA KRAS), about 5 days): moderate (0.1-0.2 moderate synergy)
cell growth inhibition ([3]; SHP2 inhibitor as single agent, across its concentration range (up to 10 uM), across the cell line panel): no more than 75%
maximal cell growth inhibition, on average ([3]; SHP2 inhibitor as single agent, average over cell line panel): about 36%

CC(=O)c1c(C)c2cnc(Nc3ccc(N4CCNCC4)cn3)nc2n(C2CCCC2)c1=O [palbociclib]
cell growth inhibition ([1]; CDK4/6 inhibitor (palbociclib) as single agent, across its concentration range (up to 1 uM)): no more than 81%
maximal cell growth inhibition, on average ([1]; CDK4/6 inhibitor (palbociclib) as single agent): about 48%
cell growth inhibition ([2]; 0.3 uM CDK4/6 inhibitor (Palbociclib) in combination with nucleic-acid based Kras12D inhibitor): up to 79%

Cc1c(C#N)cccc1[C@@H](C)Nc1nnc(C)c2cnc(N3CCOCC3)cc12 [SOS inhibitor]
degree of synergy of cell growth inhibition (excess over Bliss) ([2]; 10 uM SOS inhibitor in combination with nucleic-acid based Kras12D inhibitor (shRNA KRAS), about 5 days): robust (>0.2 is robust synergy)
cell growth inhibition ([3]; SOS inhibitor as single agent, across its concentration range (up to 10 uM), across the cell line panel): no more than 50%
cell growth inhibition ([3]; SOS inhibitor tested alone (FIG. 12 cell lines)): no significant cell growth inhibition

C#Cc1cccc(Nc2ncnc3cc(OCCOC)c(OCCOC)cc23)c1 [erlotinib]
inhibition at 3 µM ([2]; 3 uM in combination with nucleic-acid based Kras12D inhibitor, pancreatic, colorectal and NSCLC cell lines): ≤ 75%
inhibition at 3 µM ([2]; 120 h, single agent, 3 uM, about 5 days): < 30%
cell growth inhibition ([3]; erlotinib as single agent, across its concentration range (up to 10 uM), across the cell line panel): no more than 72%
maximal cell growth inhibition response, on average ([3]; erlotinib as single agent, average over cell line panel): under 50%

From patent US20240084305A1, “MODULATORS OF CELL PROLIFERATION AND USES THEREOF” (Kumquat Biosciences Inc., priority 2020, published 2024)
